Reference: ChEMBL document CHEMBL1155344, “Synthesis of some new 1,2,4-triazoles starting from isonicotinic acid hydrazide and evaluation of their antimicrobial activities” (2009)
Calls of active or inactive are those of the source. No cut-off for these calls is given here.

Columns and labels:
Staphylococcus aureus [1] = assay: Antimicrobial activity against Staphylococcus aureus ATCC 25923 at 10 ug after 18 hrs by well diffusion method; assay type: functional; conditions: ATCC 25923, 18 h, read-out: IZ
Bacillus cereus [2] = assay: Antimicrobial activity against Bacillus cereus 702 Roma at 10 ug after 18 hrs by well diffusion method; assay type: functional; conditions: read-out: IZ
Candida tropicalis [3] = assay: Antimicrobial activity against Candida tropicalis ATCC 13803 at 10 ug after 18 hrs by well diffusion method; assay type: functional, organism-based
Enterococcus faecalis [4] = assay: Antimicrobial activity against Enterococcus faecalis ATCC 29212 at 10 ug after 18 hrs by well diffusion method; assay type: functional; conditions: ATCC 29212, 18 h, read-out: IZ
Pseudomonas aeruginosa [5] = assay: Antimicrobial activity against Pseudomonas aeruginosa ATCC 27853 at 10 ug after 18 hrs by well diffusion method; assay type: functional; conditions: ATCC 27853, 18 h, read-out: IZ
Escherichia coli [6] = assay: Antimicrobial activity against Escherichia coli ATCC 25922 at 10 ug after 18 hrs by well diffusion method; assay type: functional; conditions: ATCC 25922, 18 h, read-out: IZ
Candida albicans [7] = assay: Antimicrobial activity against Candida albicans ATCC 60193 at 10 ug after 18 hrs by well diffusion method; assay type: functional, organism-based
[8] = tested on: Yersinia pseudotuberculosis; assay: Antimicrobial activity against Yersinia pseudotuberculosis ATCC 911 at 10 ug after 18 hrs by well diffusion method; assay type: functional; conditions: ATCC 911, 18 h, read-out: IZ
Candida tropicalis [9] = assay: Antimicrobial activity against Candida tropicalis ATCC 13803 after 18 hrs by well diffusion method; assay type: functional
Staphylococcus aureus [10] = assay: Antimicrobial activity against Staphylococcus aureus ATCC 25923 after 18 hrs by well diffusion method; assay type: functional
Enterococcus faecalis [11] = assay: Antimicrobial activity against Enterococcus faecalis ATCC 29212 after 18 hrs by well diffusion method; assay type: functional
Escherichia coli [12] = assay: Antimicrobial activity against Escherichia coli ATCC 25922 after 18 hrs by well diffusion method; assay type: functional
Pseudomonas aeruginosa [13] = assay: Antimicrobial activity against Pseudomonas aeruginosa ATCC 27853 after 18 hrs by well diffusion method; assay type: functional
Candida albicans [14] = assay: Antimicrobial activity against Candida albicans ATCC 60193 after 18 hrs by well diffusion method; assay type: functional
Bacillus cereus [15] = assay: Antimicrobial activity against Bacillus cereus 702 Roma after 18 hrs by well diffusion method; assay type: functional
[16] = tested on: Yersinia pseudotuberculosis; assay: Antimicrobial activity against Yersinia pseudotuberculosis ATCC 911after 18 hrs by well diffusion method; assay type: functional
Escherichia coli [17] = assay: Antimicrobial activity against Escherichia coli ATCC 25922 at 5 ug after 18 hrs by well diffusion method; assay type: functional, organism-based
Candida albicans [18] = assay: Antimicrobial activity against Candida albicans ATCC 60193 at 5 ug after 18 hrs by well diffusion method; assay type: functional; conditions: ATCC 60193, 18 h, read-out: IZ
Bacillus cereus [19] = assay: Antimicrobial activity against Bacillus cereus 702 Roma at 5 ug after 18 hrs by well diffusion method; assay type: functional, organism-based
Candida tropicalis [20] = assay: Antimicrobial activity against Candida tropicalis ATCC 13803 at 5 ug after 18 hrs by well diffusion method; assay type: functional; conditions: ATCC 13803, 18 h, read-out: IZ
[21] = tested on: Yersinia pseudotuberculosis; assay: Antimicrobial activity against Yersinia pseudotuberculosis ATCC 911 at 5 ug after 18 hrs by well diffusion method; assay type: functional, organism-based
Pseudomonas aeruginosa [22] = assay: Antimicrobial activity against Pseudomonas aeruginosa ATCC 27853 at 5 ug after 18 hrs by well diffusion method; assay type: functional, organism-based
Enterococcus faecalis [23] = assay: Antimicrobial activity against Enterococcus faecalis ATCC 29212 at 5 ug after 18 hrs by well diffusion method; assay type: functional, organism-based
Staphylococcus aureus [24] = assay: Antimicrobial activity against Staphylococcus aureus ATCC 25923 at 5 ug after 18 hrs by well diffusion method; assay type: functional, organism-based

Compound | inhibition zone (IZ) (Candida tropicalis [9]) | inhibition zone (IZ) (Staphylococcus aureus [10]) | inhibition zone (IZ) (Enterococcus faecalis [11]) | inhibition zone (IZ) (Escherichia coli [12]) | inhibition zone (IZ) (Pseudomonas aeruginosa [13]) | inhibition zone (IZ) (Candida albicans [14]) | inhibition zone (IZ) (Bacillus cereus [15]) | inhibition zone (IZ) [16] | also measured
CC1(C)S[C@@H]2[C@H](NC(=O)[C@H](N)c3ccccc3)C(=O)N2[C@H]1C(=O)O [AMPICILLIN] | – | – | – | – | – | – | – | – | zone of inhibition at 10 µg/disc (Staphylococcus aureus [1]): 35 mm; zone of inhibition at 10 µg/disc (Bacillus cereus [2]): 15 mm; inhibition zone (IZ) (Candida tropicalis [3]): inactive; zone of inhibition at 10 µg/disc (Enterococcus faecalis [4]): 10 mm; zone of inhibition at 10 µg/disc (Pseudomonas aeruginosa [5]): 18 mm; zone of inhibition at 10 µg/disc (Escherichia coli [6]): 10 mm; inhibition zone (IZ) (Candida albicans [7]): inactive; zone of inhibition at 10 µg/disc [8]: 18 mm
CN1CCN(Cn2nc(-c3ccncc3)oc2=S)CC1 | inactive | 17 mm | 17 mm | 23 mm | 28 mm | inactive | 17 mm | 15 mm | –
S=c1[nH]nc(-c2ccncc2)o1 | 30 mm | 10 mm | inactive | inactive | inactive | 25 mm | inactive | inactive | –
S=c1[nH]nc(-c2ccncc2)n1/N=C/c1c[nH]c2ccccc12 | inactive | inactive | inactive | inactive | inactive | inactive | inactive | inactive | –
CN1CCN(Cn2nc(-c3ccncc3)n(N)c2=S)CC1 | inactive | 28 mm | 25 mm | 30 mm | 35 mm | inactive | 22 mm | 24 mm | –
Nn1c(S)nnc1-c1ccncc1 | inactive | 34 mm | 24 mm | 34 mm | 42 mm | inactive | 20 mm | 30 mm | –
OC(Cn1cncn1)(Cn1cncn1)c1ccc(F)cc1F [FLUCONAZOLE] | – | – | – | – | – | – | – | – | inhibition zone (IZ) (Escherichia coli [17]): inactive; zone of inhibition at 5 µg/disc (Candida albicans [18]): 25 mm; inhibition zone (IZ) (Bacillus cereus [19]): inactive; zone of inhibition at 5 µg/disc (Candida tropicalis [20]): 25 mm; inhibition zone (IZ) [21]: inactive; inhibition zone (IZ) (Pseudomonas aeruginosa [22]): inactive; inhibition zone (IZ) (Enterococcus faecalis [23]): inactive; inhibition zone (IZ) (Staphylococcus aureus [24]): inactive
Nn1c(-c2ccncc2)nn(CN2CCOCC2)c1=S | inactive | inactive | inactive | 20 mm | inactive | inactive | inactive | 13 mm | –
CN1CCN(Cn2nc(-c3ccncc3)n(/N=C/c3ccc(F)cc3)c2=S)CC1 | inactive | inactive | inactive | inactive | inactive | inactive | inactive | inactive | –
Fc1ccc(/C=N/n2c(-c3ccncc3)n[nH]c2=S)cc1 | 8 mm | inactive | inactive | inactive | inactive | 8 mm | 7 mm | inactive | –
S=c1oc(-c2ccncc2)nn1CNCCN1CCOCC1 | inactive | 14 mm | 15 mm | 13 mm | 13 mm | inactive | 14 mm | 13 mm | –
Nn1c(-c2ccncc2)nn(CNCCN2CCOCC2)c1=S | inactive | inactive | inactive | inactive | inactive | inactive | inactive | inactive | –
CCSc1nnc(-c2ccncc2)o1 | 7 mm | 25 mm | 25 mm | 30 mm | 25 mm | 7 mm | 18 mm | 22 mm | –
CCSc1nnc(-c2ccncc2)n1N | 8 mm | 25 mm | 25 mm | 30 mm | 25 mm | 8 mm | 20 mm | – | –
